# From a melting point compilation (Tetko et al.; mined from patent text by program, amines drawn as free bases though some values may be those of a salt)
row,Compound,melting point
1,OCCOCC=C(c1ccc(Cl)cc1)c1ccc(Cl)cc1,93 to 95 °C
2,CC(C#Cc1ccc(C#N)cc1)N1C(=O)c2ccccc2C1=O (centres undefined),138 to 142 °C
3,NS(=O)(=O)NC(c1ccccc1)P(=O)(Oc1ccccc1)Oc1ccccc1 (centres undefined),171 to 174 °C
4,CCCc1c(OCCCOc2ccc(N)cc2)ccc(C(C)=O)c1O,75 to 77 °C
5,CCOC(=O)c1cn(C(C)F)c2cc(-n3cccc3)c(F)cc2c1=O (centres undefined),231 to 234 °C
6,O=C(O)c1ccccc1OCCOc1cccc2ccccc12,205 to 207 °C
7,Cc1nc(-c2ccc(C(F)(F)F)cc2)oc1Sc1ccc(Cc2nn[nH]n2)cc1,214 °C
8,CC(C)(C)OC(=O)NCCc1cccc(C(=O)c2cc(Cl)ccc2N)c1,128 to 129 °C
9,CN1C(=O)[C@H](NC(=O)c2cc3ccccc3[nH]2)N=C(c2ccccc2)c2ccccc21,167 to 177 °C
10,O=C(c1ccccc1)N1CCN(c2ccccc2)CCN1C(=O)c1ccccc1,190 to 192 °C
11,CN(C)c1c(S(=O)(=O)C(F)(F)F)c(C#N)nn1-c1c(Cl)cc(C(F)(F)F)cc1Cl,178 to 179 °C
12,CC(C(=O)O)c1ccc(C=C2CCCCC2=O)cc1 (centres undefined),108 to 110 °C
13,C[C@@H]1Cc2cc3c(cc2C(c2ccc(N)cc2)=NN1c1ccccc1)OCO3,118 to 119 °C
14,CC(O)C1=C(c2ccccc2)C(=O)N(C(C)(C)C(=O)Nc2cc(Cl)cc(Cl)c2)CO1 (centres undefined),85 to 88 °C
15,CCCc1nc2c(N)nc3cc(OCc4ccc(F)cc4)ccc3c2s1,189 to 192 °C
16,CCCCc1nc2c(N)nc3cccnc3c2n1CCCCNC(=O)OC(C)(C)C,148 to 150 °C
17,Cc1ccc(S(=O)(=O)N[C@@H](C)C(=O)Oc2c[nH]c(-c3ccccc3)c2)cc1,154 to 155 °C
18,O=C(NC(Cc1ccccc1)C(=O)O)OCc1ccc(-c2ccccc2)cc1 (centres undefined),142 °C
19,CCOCc1nc2c(N)nc(C)cc2n1CC(C)C,72 to 74 °C
20,CCn1nc(OCCCCc2ccc(OC(C)C)cc2Oc2ncc(C(F)(F)F)cc2Cl)cc1CCC(=O)O,129 to 130 °C
21,OCC1CCC(c2ccccc2)CC1 (centres undefined),47.3 to 48.5 °C
22,COc1c(-c2cc3c(s2)CCCC3=O)ccc2c(=O)c(C(=O)O)cn(C3CC3)c12,266 to 267 °C
23,CN(C)c1nc2n(n1)CC1=CSC(=O)C1=N2,295 to 298 °C
24,Cc1ccc(OCC(CO)NC(C)(C)C)c(-c2ccc(NN)nn2)c1 (centres undefined),172 to 178 °C
25,Nc1cnc2cc3c(cc2c1-c1ccccc1Cl)CCC3,179 to 180 °C

row,Compound,melting point
1,CC1CCC(NC(=O)NS(=O)(=O)c2ccc(CCNC(=O)N3C(=O)c4ccccc4C3C)cc2)CC1 (centres undefined),212 to 214 °C
2,Nc1cc(Cl)c(I)c(Cl)c1,147 to 148 °C
3,Clc1ccc(C(c2ccc(Cl)cc2)N2CCN(C(c3ccccc3)c3c[nH]c4cccc(Cl)c34)CC2)cc1 (centres undefined),100 to 105 °C
4,C#Cc1ccc2c(c1)C(c1ccccc1Cl)=NCc1nnc(C)n1-2,304 to 306 °C
5,O=C(O)Cc1c(-c2ccccc2)nn(-c2cccc(C(F)(F)F)c2)c1-c1ccccc1,166 to 167 °C
6,CCOC(=O)CCC(=O)c1cnc2c(OC)cccc2c1NCc1ccccc1,201 to 202 °C
7,O=C(O)COc1ccc2c(c1)sc1cc3ccccc3c(-c3ccc(OC(Cc4ccccc4)C(=O)O)cc3)c12 (centres undefined),191 to 201 °C
8,CCSc1ccc2cc(C(C)=O)ccc2c1,69 °C
9,N#CN=C(Nc1cccc(-c2cccc(S(=O)(=O)NC(CC(=O)O)c3ccccc3)c2)c1)NC1CC1 (centres undefined),120 °C
10,CC(C)(C)CC(C)(C)c1ccc(OCCOC(=O)c2ccc(Nc3nc(Cl)nc(Cl)n3)cc2)cc1,249 to 251 °C
11,NC(=O)c1ccnc(Oc2cccc(C(F)(F)F)c2)n1,113 °C
12,CNC(=O)c1cc(NC(=O)c2ccc(C)c(Nc3nccc(-c4cccnc4)n3)c2)cc(C(F)(F)F)c1,245 to 249 °C
13,CCCCCCCNC(=O)Nc1ccccc1C(=O)NC1CCN(C2c3ccccc3COc3ccc(Br)cc32)CC1 (centres undefined),198 to 199 °C
14,Cc1c(C)c2c(c(C)c1NC(=O)CC(C)(C)C)C(=O)C(C)(C)O2,155 to 156 °C
15,CC(C)(C)c1ccc(C(=O)Nc2cn3cc(-c4cnco4)ccc3n2)cn1,251 to 253 °C
16,CC1(C)SCC(CO)S1 (centres undefined),45 to 50 °C
17,O=C(O)COc1ccc2cc(-c3oc4ccccc4c3CCC3CCCC3)ccc2c1Br,155 to 156 °C
18,COC(=O)C(C)NC(=O)NS(=O)(=O)C=Cc1ccccc1 (centres undefined),138 to 140 °C
19,N#Cc1cc(O)cc2cc(-c3ccc(O)c(F)c3)oc12,> 300 °C
20,Fc1ccc(OC2CN(CCc3c[nH]c4ccccc34)C2)cc1,111 to 113 °C
21,Cc1nn(C)c(-n2ccc3cc(Cl)cnc32)c1/C=C/C(=O)NS(=O)(=O)NCC1CC1,209 to 210 °C
22,N#Cc1ccc2c(c1)ncn2-c1cccc(Br)c1,168 to 174 °C
23,COC(=O)C1CNCCN1C(=O)/C=C/c1ccc(Sc2ccc3c(c2)OCCO3)c(C(F)(F)F)c1 (centres undefined),70 to 72 °C
24,O=c1c2ccccc2ccn1Cc1ccc(F)cc1,107 °C
25,COC(=O)c1c(NCc2ccc(OC)c(Cl)c2)nc(SC)nc1OC,124 to 126 °C

row,Compound,melting point
1,CC(C)c1cccc(C(C)C)c1NC(=O)CC1c2ccccc2Oc2ccccc21,231 to 232 °C
2,C#CCOc1ccc(C(=O)OC)c(O)c1,142 °C
3,Cc1c(-c2ccc3oc(=O)n(C)c3c2)nc2c(OCc3ccccc3)cccn12,210 °C
4,COc1ccc(CN2C(=O)[C@H]3CCC[C@H]3N(C(=O)CN3C(=O)c4ccccc4C3=O)c3ccccc32)cc1 (relative stereo),237 to 238 °C
5,CN1C(=O)C(NC(=O)CCc2ccccc2)N=C(N(C)C2CCCCC2)c2ccccc21 (centres undefined),167 to 168 °C
6,CCCc1cc(Br)c2oc(Cc3ccc(OC)cc3)c(C)c2c1O,110 to 112 °C
7,Nc1c(SC(F)(F)F)c(C=O)nn1-c1c(Cl)cc(CC(F)(F)F)cc1Cl,140 to 143 °C
8,CC(C)(C)c1nnc(-c2ccccn2)[nH]c1=O,114 to 115 °C
9,COc1ccc(NC(=S)NC(=O)c2ccccc2)cc1COc1cc(Cl)cc(Cl)c1,167 to 169 °C
10,Cc1ccc2nc(SCCN(C(C)C)C(C)C)[nH]c2c1,109 to 110 °C
11,CCOC(=O)C1=C(C)Nc2nc(N3CCOCC3)nc(N3CCOCC3)c2C1c1ccccc1OC (centres undefined),188 °C
12,CSC(Nc1cc(Cl)cc(Cl)c1)=C(C#N)S(=O)(=O)c1ccc(Cl)cc1,128 to 131 °C
13,COC(=O)/C(=C/c1ccc(OCCN(C)c2nc3ccccc3o2)cc1)OCC(=O)O,111 to 112 °C
14,CC(C)(C)OC(=O)N1CCC(=CS(=O)(=O)NC(=O)c2cc(C(F)(F)F)cc(C(F)(F)F)c2)CC1,132 to 136 °C
15,Brc1cnn2ccc(N3CCNCC3)nc12,108 to 109 °C
16,CC(C)=CCOc1ccc2c(C)cc(=O)oc2c1C(=O)C=Cc1ccccc1,114 to 116 °C
17,FC(F)(F)c1ccc(-c2cnn(-c3cccnc3)c2)cn1,203 to 204 °C
18,CC1(C(=O)Nc2ccc(S(C)(=O)=O)c(C(F)(F)F)c2)CC1,135 to 138 °C
19,Oc1ccc(CC2CC2(Cl)Cl)cc1 (centres undefined),57 to 62 °C
20,CON=C(CBr)c1ccc(Cl)cc1,57 to 60 °C
21,C[Si](C)(C)CCCCCCCCCCCNc1ccc(C(=O)O)cc1,121 to 122 °C
22,Cc1ncc(-c2ccc([C@H](C)N3CC[C@](CCCO)(c4ccc(F)cc4)OC3=O)cc2)cn1,166 to 168 °C
23,COC(=O)c1ncc(C)cc1C(=O)O,200 °C
24,CC(C)(C)OC(=O)N1CCC(CCN2C(=O)c3ccccc3C2=O)CC1,112 to 114 °C
25,CCOC(=O)C=Cc1cccc(OCc2nc(-c3ccccc3)oc2C)c1,91 to 92 °C

row,Compound,melting point
1,CC(=O)OCc1ccc(Sc2ccccc2C(=O)O)c([N+](=O)[O-])c1,150 to 151 °C
2,CC(=O)Oc1cc2c(c3ccccc13)Nc1ccccc1O2,152 to 155 °C
3,CN1CCN(c2cc3nc4c(cc3cc2F)c(=O)c(C#N)cn4C)CC1,335 °C
4,CCCCC1CCCCCc2c1oc(=O)c(C(c1ccccc1)C1CC1)c2O (centres undefined),78 to 82 °C
5,S=C1CC(c2ccc(Cl)cc2)Oc2ccccc21 (centres undefined),116 to 120 °C
6,O=C(N[C@H](Cc1ccc(C(F)(F)F)cc1)[C@@H](O)c1ccc(F)cc1)c1cccc2cccnc12 (racemic),83 to 84 °C
7,COc1ccc(Cl)cc1C(=O)NCCc1ccc(-c2ccc(Cl)cc2)c(S(N)(=O)=O)c1,185 °C
8,COC(=O)c1cc(C(C)=O)c(C(F)(F)F)cc1NC(C)=O,66 to 69 °C
9,CC(C)(C)S(=O)(=O)CC(Cc1ccccc1)C(=O)O (centres undefined),147 to 148 °C
10,O=C(OC1C(=O)NC1c1ccccc1)c1ccccc1 (centres undefined),118 to 119 °C
11,CCN(CC)C(=O)c1c2nc3c(C(=O)N(CC)CC)c(N)c(O)c(C)c3oc-2c(C)c(=O)c1N,262 to 265 °C
12,O=C1C(O)OC=CN1Cc1ccccc1 (centres undefined),134 °C
13,CCn1c(NC)nc(=O)c2ccccc21,262 to 264 °C
14,C=CCn1c2ccccc2c2sccc(=O)c21,67 to 68 °C
15,CCCCCCCCCCCCCCOc1ccc(CC(=O)Nc2ccc(CBr)cc2)cc1,110 to 115 °C
16,Cc1ccncc1C(N)=S,104 to 106 °C
17,CCOC(=O)C=Cc1cc(OC)c(OC)c([N+](=O)[O-])c1,87 to 88 °C
18,CC(=O)SC[C@@H](C)C(=O)N1C(=O)N(C)C[C@H]1C(=O)OC(C)(C)C,104 °C
19,CCOC(=O)c1cnc2sc(CN3CCOCC3)c(C)c2c1O,182 to 185 °C
20,O=C(O)COc1cccc2c1Cc1sc(SC(c3ccccc3)c3ccccc3)nc1-2,224 to 225 °C
21,Cc1occc1C(=O)Nc1ccc(C(=O)N2Cc3cccn3Cc3ccccc32)cn1,210 to 212 °C
22,CNC(=O)CNc1cccc2c1C(=O)N(C1CCC(=O)NC1=O)C2=O (centres undefined),210 to 212 °C
23,Cc1ccc(-c2c(C#N)cccc2C#N)cc1,184 to 186 °C
24,O=S(=O)(c1ccc(Br)cc1)n1ccc2ccccc21,106 °C
